# From patent US10017459B2, “β-substituted β-amino acids and analogs as chemotherapeutic agents and uses thereof” (Quadriga Biosciences, Inc., priority 2015, dated 2018)
# Experiments:
# LN229 = test: cells; type: cell-based; settings: Homo sapiens, LN-229, read-out: IC50 (in vitro toxicity)
# G55 = test: cells; type: cell-based; settings: read-out: IC50 (in vitro toxicity)
# 794 = test: cells; type: cell-based; settings: read-out: IC50 (in vitro toxicity)
# Raji = test: cells; type: cell-based; settings: Homo sapiens, read-out: IC50 (in vitro toxicity)
# L363 = test: cells; type: cell-based; settings: Homo sapiens, L-363, read-out: IC50 (in vitro toxicity)
# AMO1 = test: cells; type: cell-based; settings: Homo sapiens, AMO1, read-out: IC50 (in vitro toxicity)
# RPMI8266 = test: cells; type: cell-based; settings: RPMI8266, read-out: IC50 (in vitro toxicity)
# HS5 = test: cells; type: cell-based; settings: HS5, read-out: IC50 (in vitro toxicity)
# 799E = test: In vitro cytotoxicity, 799E; type: cell-based; settings: read-out: IC50 (in vitro toxicity)
# MDA-MB-231 = test: Breast cancer xenograft study, IP dosing; type: in vivo, mouse
# Experimental: The efficacy of compounds provided by the present disclosure was evaluated on a triple negative breast cancer xenograft model—MDA-MB-231. The tumors were implanted into mice and the study was initiated after the volume of the tumors was 140 mm^3. The animals were IP dosed once a week or 3 times per week for 3 weeks with either vehicle or 1.25 mg/kg, 2.5 mg/kg, or 5 mg/kg of compound (5). The tumor volume, body weight, white blood cell count, and granulocyte count were determined during the study and 20 days after the final dose was administered. […] Tumor growth remained about 90% suppressed 20 days post-dosing following the 5 mg/kg treatment regimens.
# PC3 = test: Prostate cancer xenograft study, IP dosing; type: in vivo, mouse
# Experimental: The efficacy of compounds provided by the present disclosure was evaluated on a prostate cancer xenograft model—PC3. PC3 tumors were implanted into mice and the study was initiated after the volume of the tumors was 130 mm^3. The animals were IP dosed once a week or 3 times per week for 3 weeks with either vehicle or 1.25 mg/kg, 2.5 mg/kg, or 5 mg/kg of compound (5). The tumor volume, body weight, white blood cell count, and granulocyte count were determined during the study and 10 days after the final dose was administered.
# PC3 tumors = test: Prostate cancer xenograft study, large tumor study; type: in vivo, mouse
# Experimental: PC3 tumors were implanted into mice and the study was initiated after the volume of the tumors was 500 mm^3. Five (5) mg/kg compound (5) was administered by IP injection three times per week for two weeks. The tumor size, body weight, white cell count, and granulocyte count were measured.
# In a counterpart study, mice in which the PC3 tumor size was at least 500 mm^3 were administered either 7.5 mg/kg or 10 mg/kg compound (5) three times a week for four weeks. In these studies, the mice were first administered a dose of either 2.5 mg/kg or 1.25 mg/kg, three times per week for three weeks. The tumor size, body weight, white cell count, and granulocyte count were measured. The tumor volume for the 7.5 mg/kg dosing regimen is resented in FIGS. 8A-8D, and for the 10 mg/kg dosing regimen in FIGS. 9A-9D.
# U251 MG [1] = test: Orthotopic glioblastoma study (Example 83); type: in vivo, mouse; settings: athymic mice, 10 mg/kg IP once weekly for 4 weeks
# Experimental: (§1) The efficacy of compounds provided by the present disclosure was evaluated using an orthotopic luciferase human glioblastoma model—U251 MG. Human glioblastoma cells were intracolonically injected (3×10^5 cells/3 μL) into athymic mice (female, 4-5 weeks-old, nu/un homozygous). Treatment began when the BLI reached a log-phase growth, at about 14 days after injection. Ten mice were assigned to each arm of the study. The mice were dosed with vehicle (IP, once weekly for 4 weeks), temozolomide (TMZ, 4 mg/kg, OG once daily for 5 days), or compound (5) (10 mg/kg, IP once weekly for 4 weeks). The tumor volume was measured using bioluminescence imaging.
# U251 MG [2] = test: Orthotopic glioblastoma study (Example 84); type: in vivo, mouse; settings: 5 mg/kg and 10 mg/kg IV once weekly for 4 weeks
# Experimental: as §1, with “weeks), compound (5) (5 mg/kg, IV once weekly for” for “weeks), temozolomide (TMZ,”, “4 weeks),” for “4 mg/kg, OG once daily for 5 days), or”, “mg/kg, IV” for “mg/kg, IP”, “4 weeks), compound (40) (10 mg/kg, IV once weekly for 4 weeks), or compound (50) (20 mg/kg, IV single dose).” for “4 weeks).”
# U266 = test: Orthotopic multiple myeloma study; settings: mouse, in vivo
# Experimental: The efficacy of compounds provided by the present disclosure was evaluated using an orthotopic luciferase human multiple myeloma model—U266. Human multiple myeloma cells were IV injected (1×10^6 cells) into NSG mice (female, 5-6 weeks-old, Jackson Labs). Treatment began when the BLI reached a log-phase growth, at about 12 to 14 days after injection. Nine mice were assigned to each arm of the study. The mice were dosed with vehicle (IP, once weekly for 3 weeks), bortezomid (BTZ, 0.8 mg/kg, IP twice weekly for 3 weeks), compound (5) (5 mg/kg, IV once weekly for 3 weeks), or compound (5) (10 mg/kg, IV once weekly for 3 weeks). The tumor volume was measured using bioluminescence imaging.
# [3] = system: LLCPK cells conditionally expressing hLAT1; test: cells; settings: 0.5 h, read-out: LC50, concentration of test compound at which the percent surviving cells was 50%
# [4] = during and following treatment, all dosing regimens
# [5] = 5 mg/kg IP three times per week for two weeks
# [6] = 7.5 mg/kg or 10 mg/kg dosing regimens
smiles,measurement,setting,value
"Cc1ccc(N(CCCl)CCCl)cc1C[C@H](N)CC(=O)O [Compound 5, (3S)-3-Amino-4-[5-[bis(2-chloroethyl)amino]-2-methyl-phenyl]butanoic Acid]",IC50,LN229,< 100 µM
same,IC50,G55,< 100 µM
same,IC50,794,< 100 µM
same,IC50,Raji,< 100 µM
same,IC50,L363,> 100 µM
same,IC50,AMO1,> 100 µM
same,IC50,RPMI8266,> 100 µM
same,IC50,HS5,> 100 µM
same,IC50,799E,< 100 µM
same,tumor growth post-treatment,"MDA-MB-231; 1.25 mg/kg and 2.5 mg/kg regimens, IP",demonstrated a dose response
same,growth of the tumors,"MDA-MB-231; 2.5 mg/kg and 5 mg/kg dosing regimens, IP once a week or 3 times per week for 3 weeks",nearly completely suppressed
same,tumor growth suppression 20 days post-dosing,"MDA-MB-231; 5 mg/kg treatment regimens, IP",about 90%
same,animal body weights,MDA-MB-231; all dosing regimens,increased
same,white blood cell count and granulocyte count,MDA-MB-231; [4],remained within normal range
same,tumor growth post-treatment,"PC3; 1.25 mg/kg, 2.5 mg/kg, and 5 mg/kg regimens, IP",demonstrated a dose response
same,growth of the tumors,"PC3; 5 mg/kg dosing regimen, IP once a week or 3 times per week for 3 weeks",nearly completely suppressed
same,animal body weights,PC3; all dosing regimens,remained the same increased
same,white blood cell count and granulocyte count,PC3; [4],remained within normal range
same,body weight,PC3 tumors; [5],decreased
same,"cell counts (white cell, granulocyte)",PC3 tumors; [5],remained within the normal range
same,body weights,PC3 tumors; [6],remained about the same
same,"cell counts (white cell, granulocyte)",PC3 tumors; [6],remained within the normal range
same,"tumor growth rate, large tumors","PC3 tumors; tumors 500 mm3, 5 mg/kg IP three times per week for two weeks",growth rate slowed for some large tumors
same,"PC3 tumor growth, large tumors","PC3 tumors; tumors at least 500 mm3, 7.5 mg/kg or 10 mg/kg three times a week for four weeks",slowed in many of the animals and in some the size of the tumor decreased
same,crossing of the BBB,U251 MG [1],crossed the BBB
same,glioblastoma tumor growth (bioluminescence imaging),U251 MG [1],suppressed glioblastoma tumor growth
same,glioblastoma tumor growth (bioluminescence imaging),U251 MG [2],dose-dependent suppression of glioblastoma tumor growth
same,multiple myeloma tumor growth (bioluminescence imaging),U266,dose-dependent suppression of multiple myeloma tumor growth
same,CC50,[3],< 1 µM
